One assay addresses mTOR (Homo sapiens, UniProt P42345). The note with it: cited from earlier work.
For a further assay, the system named is HCC1937. The note with it: cited from earlier work.
The next assay relates to MDA-MB-231. The note with it: cited from earlier work.
For assay [1], the system named is MDA-MB-231 nude mice-derived xenografts. Briefly: MDA-MB-231 xenografts in nude mice. Type of assay: in vivo. The note with it: Compound (1-1) 50 mg/kg BID po; everolimus 2 mg/kg 3 time a week ip; 4 weeks treatment. As for the experimental part:
In vivo assays were performed in 8-week-old female MDA-MB-231 nude mice-derived xenografts. 10×10^6 cells were injected, when tumor volume reached 100 mm^3, mice were randomized to 4 groups (n=9): 1) vehicle; 2) 50 mg/kg Compound (1-1) (BID, po); 3) 2 mg/kg of everolimus (3 time a week, ip); 4) combination Compound (1-1) and everolimus; 4 weeks treatment.
Symbols with • indicate significant differences between treatment vs. vehicle-treated mice (p<0.05). * indicates a significant difference in the tumor mass between the combination treated animals and the two single agent groups (*p<0.05, **p<0.01 and ***p<0.001). Results represent the mean±SEM (during the treatment period, n=9). Variation of animal body weight during treatment is illustrated in FIG. 18B. […] The T/C ratio was 39% after 10 days of combination treatment, with an optimal value of 21% on day 23. Compound (1-1) can be used for the treatment of TNBC, either alone or in combination with mTOR inhibitors.

For a further assay, the target named is FKBP12 (Homo sapiens, UniProt P62942). The note with it: cited from earlier work.
For the next assay, the system named is PI3K/mTOR. The note with it: cited from earlier work.
In assay [2] the test system is Akt phosphorylation on T308. The settings on record: cited from earlier work.
Assay [3] relates to Akt phosphorylation on S473. The settings on record: cited from earlier work.
The target of the next assay is p110β (PI3Kβ) (Homo sapiens, UniProt P42338). The settings on record: cited from earlier work.
A further assay concerns the target p110γ (PI3Kγ) (Homo sapiens, UniProt P48736). The note with it: cited from earlier work.

Usually IC50 stands for the point on the concentration scale where inhibition reaches its midpoint. The term Ki denotes a dissociation constant, usually derived from enzyme kinetics or from competition with a known ligand.

p110β (PI3Kβ), sequence (P42338 whole entry, species assumed): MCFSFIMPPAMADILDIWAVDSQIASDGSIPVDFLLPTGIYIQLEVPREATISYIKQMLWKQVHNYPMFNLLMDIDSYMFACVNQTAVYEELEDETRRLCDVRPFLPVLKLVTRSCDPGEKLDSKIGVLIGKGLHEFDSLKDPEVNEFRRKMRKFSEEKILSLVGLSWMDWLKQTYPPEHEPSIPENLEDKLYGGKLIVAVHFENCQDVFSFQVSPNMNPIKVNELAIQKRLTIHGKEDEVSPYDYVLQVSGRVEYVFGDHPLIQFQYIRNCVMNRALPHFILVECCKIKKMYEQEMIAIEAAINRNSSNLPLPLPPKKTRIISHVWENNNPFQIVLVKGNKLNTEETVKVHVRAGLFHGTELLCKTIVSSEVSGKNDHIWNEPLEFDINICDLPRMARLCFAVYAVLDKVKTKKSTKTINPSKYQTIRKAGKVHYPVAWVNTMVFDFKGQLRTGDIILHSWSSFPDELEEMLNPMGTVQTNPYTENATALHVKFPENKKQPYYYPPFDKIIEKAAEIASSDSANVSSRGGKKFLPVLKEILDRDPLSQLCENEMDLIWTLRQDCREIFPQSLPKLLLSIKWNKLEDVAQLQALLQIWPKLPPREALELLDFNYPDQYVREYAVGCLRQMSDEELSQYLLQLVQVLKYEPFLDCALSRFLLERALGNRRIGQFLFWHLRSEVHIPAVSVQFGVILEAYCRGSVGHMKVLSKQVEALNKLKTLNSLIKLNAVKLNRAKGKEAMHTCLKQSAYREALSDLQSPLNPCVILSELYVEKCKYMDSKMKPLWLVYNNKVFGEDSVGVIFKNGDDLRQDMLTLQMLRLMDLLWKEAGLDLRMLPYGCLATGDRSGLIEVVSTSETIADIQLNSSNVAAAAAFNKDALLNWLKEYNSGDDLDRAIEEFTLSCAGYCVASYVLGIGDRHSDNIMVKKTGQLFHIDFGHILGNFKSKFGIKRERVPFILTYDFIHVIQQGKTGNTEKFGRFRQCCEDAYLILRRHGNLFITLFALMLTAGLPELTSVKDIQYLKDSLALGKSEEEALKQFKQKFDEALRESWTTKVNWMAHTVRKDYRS
p110β (PI3Kβ), sequence (P27986 whole entry partner, species assumed): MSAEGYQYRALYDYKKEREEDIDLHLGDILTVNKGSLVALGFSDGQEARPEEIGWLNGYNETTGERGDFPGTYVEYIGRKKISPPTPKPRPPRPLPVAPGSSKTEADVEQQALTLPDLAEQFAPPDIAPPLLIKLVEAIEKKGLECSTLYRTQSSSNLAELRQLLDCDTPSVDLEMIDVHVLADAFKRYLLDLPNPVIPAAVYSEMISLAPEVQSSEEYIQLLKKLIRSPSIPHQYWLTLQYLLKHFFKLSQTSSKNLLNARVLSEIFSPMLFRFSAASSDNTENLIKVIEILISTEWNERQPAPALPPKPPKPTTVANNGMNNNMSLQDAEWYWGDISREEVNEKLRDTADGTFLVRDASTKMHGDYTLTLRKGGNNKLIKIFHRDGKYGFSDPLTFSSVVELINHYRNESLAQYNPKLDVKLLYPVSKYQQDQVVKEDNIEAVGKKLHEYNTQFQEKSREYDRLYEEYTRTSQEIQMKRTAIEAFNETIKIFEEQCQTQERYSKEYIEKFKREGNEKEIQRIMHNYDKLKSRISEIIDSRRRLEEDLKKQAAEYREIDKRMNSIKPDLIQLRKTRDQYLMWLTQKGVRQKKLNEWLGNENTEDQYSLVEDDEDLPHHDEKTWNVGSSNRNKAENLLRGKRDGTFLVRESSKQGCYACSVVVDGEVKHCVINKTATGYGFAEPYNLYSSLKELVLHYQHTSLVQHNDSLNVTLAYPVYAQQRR
FKBP12, sequence (P62942 whole entry, species assumed): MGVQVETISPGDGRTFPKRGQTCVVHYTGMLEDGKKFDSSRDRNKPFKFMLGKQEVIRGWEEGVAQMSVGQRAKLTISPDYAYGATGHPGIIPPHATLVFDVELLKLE
p110γ (PI3Kγ), sequence (P48736 whole entry, species assumed): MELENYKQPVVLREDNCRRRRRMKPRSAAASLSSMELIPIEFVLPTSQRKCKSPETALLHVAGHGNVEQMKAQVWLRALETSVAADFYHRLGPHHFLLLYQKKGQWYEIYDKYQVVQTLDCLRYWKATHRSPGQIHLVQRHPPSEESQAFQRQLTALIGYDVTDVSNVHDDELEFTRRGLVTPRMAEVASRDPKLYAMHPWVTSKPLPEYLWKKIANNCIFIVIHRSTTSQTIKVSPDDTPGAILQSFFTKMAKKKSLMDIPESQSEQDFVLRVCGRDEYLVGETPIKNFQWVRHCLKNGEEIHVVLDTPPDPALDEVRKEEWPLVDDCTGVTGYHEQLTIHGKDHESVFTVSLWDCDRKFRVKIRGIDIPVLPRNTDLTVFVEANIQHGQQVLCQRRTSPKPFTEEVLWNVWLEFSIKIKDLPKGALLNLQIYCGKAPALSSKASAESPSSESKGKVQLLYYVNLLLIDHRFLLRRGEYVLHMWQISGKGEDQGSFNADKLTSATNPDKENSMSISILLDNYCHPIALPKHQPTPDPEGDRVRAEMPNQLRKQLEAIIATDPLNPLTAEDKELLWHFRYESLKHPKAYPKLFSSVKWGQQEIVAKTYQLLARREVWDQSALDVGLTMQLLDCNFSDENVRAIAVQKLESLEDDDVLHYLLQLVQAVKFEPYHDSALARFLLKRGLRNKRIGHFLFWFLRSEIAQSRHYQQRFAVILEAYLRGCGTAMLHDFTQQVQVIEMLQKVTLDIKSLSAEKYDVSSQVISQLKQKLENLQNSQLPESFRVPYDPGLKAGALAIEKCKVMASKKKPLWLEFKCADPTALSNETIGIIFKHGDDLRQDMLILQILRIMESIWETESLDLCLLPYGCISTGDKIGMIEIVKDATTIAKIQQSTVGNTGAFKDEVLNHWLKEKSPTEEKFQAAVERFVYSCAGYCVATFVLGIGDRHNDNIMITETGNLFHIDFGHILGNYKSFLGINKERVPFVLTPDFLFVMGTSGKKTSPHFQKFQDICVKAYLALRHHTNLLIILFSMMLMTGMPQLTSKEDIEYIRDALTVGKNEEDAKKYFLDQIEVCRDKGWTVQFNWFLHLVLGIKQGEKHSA

Consider `CO[C@H]1CC2CC[C@@H](C)[C@@](O)(O2)C(=O)C(=O)N2CCCC[C@H]2C(=O)O[C@H]([C@H](C)C[C@@H]2CCC(OP(C)(C)=O)[C@H](OC)C2)CC(=O)[C@H](C)/C=C(\C)[C@@H](O)[C@@H](OC)C(=O)[C@H](C)C[C@H](C)/C=C/C=C/C=C/1C` (some centres unmarked) [Deforolimus, 42-(Dimethylphosphinate) rapamycin], for which the IC50 at mTOR was 0.2 nM. For the compound `CC(=O)O[C@@]12CO[C@@H]1C[C@H](O)[C@@]1(C)C(=O)[C@H](O)C3=C(C)[C@@H](OC(=O)[C@H](O)[C@@H](NC(=O)OC(C)(C)C)c4ccccc4)C[C@@](O)([C@@H](OC(=O)c4ccccc4)[C@H]21)C3(C)C` [Docetaxel], the half-maximal inhibitory concentration (IC50) with HCC1937 was 7.2 nM; with MDA-MB-231 it was 3 nM. For the compound `CO[C@H]1C[C@@H]2CC[C@@H](C)[C@@](O)(O2)C(=O)C(=O)N2CCCC[C@H]2C(=O)O[C@H]([C@H](C)C[C@@H]2CC[C@@H](OCCO)[C@H](OC)C2)CC(=O)[C@H](C)/C=C(\C)[C@@H](O)[C@@H](OC)C(=O)[C@H](C)C[C@H](C)/C=C/C=C/C=C/1C` [Everolimus, reference compound], the “tumor mass with respect to vehicle-treated mice” value in assay [1] was “not active”. The IC50 on FKBP12 was 1.6 to 2.4 nM.

On to `COc1ccc(-c2ccc3ncc4c(c3c2)n(-c2ccc(N3CCNCC3)c(C(F)(F)F)c2)c(=O)n4C)cn1` [NVP-BGT226], for which, in the assay with PI3K/mTOR, the IC50 is 1 nM.

As for `COc1ccc(-c2cc3c(C)nc(N)nc3n([C@H]3CC[C@H](OCCO)CC3)c2=O)cn1` [PF-04691502], the IC50 in assay [2] was 7.5 nM; in assay [3], 3.8 nM. Turning to `COc1cc(Nc2nc3ccccc3nc2NS(=O)(=O)c2ccc(NC(=O)c3ccc(C)c(OC)c3)cc2)cc(OC)c1` [XL765], on mTOR, the 50% inhibitory concentration (IC50) is 157 nM.

GSK2126458: the values for the Ki on p110β (PI3Kβ) and at p110γ (PI3Kγ) were 0.13 nM and 0.024 nM, respectively.
